Where a SMILES comes first, the peptide text is derived from it. Bridges are numbered along the chain shown (N, C = ends). [ ]: non-standard residue; d: D form. The star is where a group is joined. Threoninol(2S,3R) = C[C@@H](O)[C@H](CO)N*
Key:
[1] = DRUGMATRIX: GABAA, Muscimol, Central radioligand binding (ligand: [3H] Muscimol); type: cell membranes, Rattus norvegicus, Wistar, Brain, Membrane; conditions: Not Active = under 50% inhibition at 10 µM
[2] = DRUGMATRIX: Glutamate, NMDA, Phencyclidine radioligand binding (ligand: [3H] TCP); type: cell membranes, Rattus norvegicus, Wistar, Cerebral cortex, Membrane; conditions: Not Active = under 50% inhibition at 10 µM
[3] = DRUGMATRIX: Leukotriene, BLT (LTB4) radioligand binding (ligand: [3H]LTB4); type: cell membranes, Membrane; conditions: u-937; Not Active = under 50% inhibition at 10 µM
[4] = target: Melanocortin receptor 3 (Homo sapiens, UniProt P41968); type: cell membranes, Membrane; conditions: hek293; further: in other assays of this panel Not Active means under 50% inhibition at 10 µM
[5] = target: Delta-type opioid receptor (Homo sapiens, UniProt P41143); type: cell membranes, HEK293, Membrane; conditions: hek293; further: in other assays of this panel Not Active means under 50% inhibition at 10 µM
[6] = DRUGMATRIX: Phosphodiesterase PDE4 enzyme inhibition (substrate: [3H]cAMP + cAMP); conditions: u-937; Not Active = under 50% inhibition at 10 µM
[7] = target: T1, Angiotensin-converting enzyme (Oryctolagus cuniculus, UniProt P12822); type: tissue-based, Lung;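 further: enzymatic inhibition of angiotensin-converting enzyme measured with FAPGG as the substrate; in other assays of this panel Not Active means under 50% inhibition at 10 µM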
T1 sequence (P12822 whole entry): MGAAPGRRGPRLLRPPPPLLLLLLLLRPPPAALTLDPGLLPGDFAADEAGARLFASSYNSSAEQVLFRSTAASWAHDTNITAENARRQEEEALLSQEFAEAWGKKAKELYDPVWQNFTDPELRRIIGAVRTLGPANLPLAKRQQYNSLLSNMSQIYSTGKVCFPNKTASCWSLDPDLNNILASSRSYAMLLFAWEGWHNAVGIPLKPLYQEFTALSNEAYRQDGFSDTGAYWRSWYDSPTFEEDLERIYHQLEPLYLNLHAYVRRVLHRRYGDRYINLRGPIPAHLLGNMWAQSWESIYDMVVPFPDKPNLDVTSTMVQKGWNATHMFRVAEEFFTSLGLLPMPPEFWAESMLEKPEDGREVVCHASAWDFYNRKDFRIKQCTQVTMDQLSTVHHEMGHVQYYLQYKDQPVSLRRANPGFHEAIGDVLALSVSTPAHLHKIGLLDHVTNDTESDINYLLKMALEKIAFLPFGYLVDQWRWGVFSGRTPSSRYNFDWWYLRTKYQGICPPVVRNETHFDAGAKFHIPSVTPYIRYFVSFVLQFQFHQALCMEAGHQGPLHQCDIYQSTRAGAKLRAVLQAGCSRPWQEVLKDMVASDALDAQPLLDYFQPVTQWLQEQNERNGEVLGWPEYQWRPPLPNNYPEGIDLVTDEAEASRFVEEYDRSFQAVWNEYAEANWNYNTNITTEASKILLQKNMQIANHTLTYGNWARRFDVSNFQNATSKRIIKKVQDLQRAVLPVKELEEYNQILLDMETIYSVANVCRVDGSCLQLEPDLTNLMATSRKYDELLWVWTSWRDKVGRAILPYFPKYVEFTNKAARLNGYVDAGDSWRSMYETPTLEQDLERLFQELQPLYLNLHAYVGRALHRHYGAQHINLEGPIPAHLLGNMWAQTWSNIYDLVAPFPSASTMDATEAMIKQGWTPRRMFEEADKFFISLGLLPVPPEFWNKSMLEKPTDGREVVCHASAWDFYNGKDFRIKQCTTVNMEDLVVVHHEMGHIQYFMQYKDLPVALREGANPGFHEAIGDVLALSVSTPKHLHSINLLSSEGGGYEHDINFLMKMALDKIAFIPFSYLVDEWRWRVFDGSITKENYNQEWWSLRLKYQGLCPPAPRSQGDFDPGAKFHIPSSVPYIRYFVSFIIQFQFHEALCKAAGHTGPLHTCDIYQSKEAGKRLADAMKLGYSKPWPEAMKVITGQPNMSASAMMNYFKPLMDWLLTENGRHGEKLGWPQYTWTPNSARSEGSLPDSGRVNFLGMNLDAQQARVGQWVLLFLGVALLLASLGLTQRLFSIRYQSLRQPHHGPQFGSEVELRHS

[8] = target: Adenosine receptor A2a (Homo sapiens, UniProt P29274); assay: DRUGMATRIX: Adenosine A2A radioligand binding (ligand: […]); type: cell membranes, HEK293, Membrane; conditions: hek293; Not Active = under 50% inhibition at 10 µM
Chain of Adenosine receptor A2a (P29274 whole entry): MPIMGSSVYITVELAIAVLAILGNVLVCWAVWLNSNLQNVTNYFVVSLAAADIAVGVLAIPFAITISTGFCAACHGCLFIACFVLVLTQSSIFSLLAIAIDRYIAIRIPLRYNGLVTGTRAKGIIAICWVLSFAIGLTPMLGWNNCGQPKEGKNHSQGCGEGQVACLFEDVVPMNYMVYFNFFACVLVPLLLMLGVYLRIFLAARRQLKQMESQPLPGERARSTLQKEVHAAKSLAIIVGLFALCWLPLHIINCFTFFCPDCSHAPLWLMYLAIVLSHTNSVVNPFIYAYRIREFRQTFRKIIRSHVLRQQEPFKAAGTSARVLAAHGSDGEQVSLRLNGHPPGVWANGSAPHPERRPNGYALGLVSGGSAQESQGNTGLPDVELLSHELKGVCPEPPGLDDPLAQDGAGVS

Chain of Delta-type opioid receptor (P41143 whole entry): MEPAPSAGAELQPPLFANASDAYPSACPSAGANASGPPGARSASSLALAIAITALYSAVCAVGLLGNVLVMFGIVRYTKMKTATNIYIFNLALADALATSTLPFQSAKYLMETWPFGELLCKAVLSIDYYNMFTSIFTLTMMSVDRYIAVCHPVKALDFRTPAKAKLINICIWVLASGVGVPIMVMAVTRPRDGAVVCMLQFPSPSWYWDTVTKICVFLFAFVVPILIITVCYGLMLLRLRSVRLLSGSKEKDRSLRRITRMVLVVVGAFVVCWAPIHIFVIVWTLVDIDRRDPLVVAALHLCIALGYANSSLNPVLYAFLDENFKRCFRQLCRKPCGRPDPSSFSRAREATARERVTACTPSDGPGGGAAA
Chain of Melanocortin receptor 3 (P41968 whole entry): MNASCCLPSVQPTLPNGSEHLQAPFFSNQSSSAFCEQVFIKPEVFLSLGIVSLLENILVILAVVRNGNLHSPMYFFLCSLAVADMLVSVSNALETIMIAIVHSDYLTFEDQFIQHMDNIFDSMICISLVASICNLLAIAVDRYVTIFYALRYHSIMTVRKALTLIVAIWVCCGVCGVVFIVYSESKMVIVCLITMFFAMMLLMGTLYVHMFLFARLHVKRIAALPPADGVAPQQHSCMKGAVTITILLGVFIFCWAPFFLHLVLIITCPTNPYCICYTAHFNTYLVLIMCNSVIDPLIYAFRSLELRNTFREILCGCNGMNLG

CADMIUM DICHLORIDE
Not Active: IC50 [1] | Ki [1] | IC50 [2] | Ki [2] | IC50 [3] | Ki [3] | IC50 [4] | Ki [4] | IC50 [5] | Ki [5] | IC50 [6] | Ki [6] | IC50 [7] | Ki [7] | IC50 [8] | Ki [8]

CCCN(CCC)C(=O)C(CCC(=O)O)NC(=O)c1ccccc1 (stereo not given) [PROGLUMIDE]
Not Active: IC50 [1] | Ki [1] | IC50 [2] | Ki [2] | IC50 [3] | Ki [3] | IC50 [4] | IC50 [5] | IC50 [6] | Ki [6] | IC50 [7] | IC50 [8]

O=C(N[C@H](CO)[C@H](O)c1ccc([N+](=O)[O-])cc1)C(Cl)Cl [CHLORAMPHENICOL]
Not Active: IC50 [1] | Ki [1] | IC50 [2] | Ki [2] | IC50 [3] | Ki [3] | IC50 [4] | IC50 [5] | IC50 [6] | Ki [6] | IC50 [7] | IC50 [8]

CCCCOc1ccc(OCCCN2CCOCC2)cc1 [PRAMOXINE]
Not Active: IC50 [1] | Ki [1] | IC50 [2] | Ki [2] | IC50 [3] | Ki [3] | IC50 [4] | IC50 [5] | IC50 [6] | Ki [6] | IC50 [7] | IC50 [8]

CC(C)(C(=O)c1cccnc1)c1cccnc1 [METYRAPONE]
Not Active: IC50 [1] | Ki [1] | IC50 [2] | Ki [2] | IC50 [3] | Ki [3] | IC50 [4] | IC50 [5] | IC50 [6] | Ki [6] | IC50 [7] | IC50 [8]

CC(=O)Nc1cccc(O)c1 [METACETAMOL]
Not Active: IC50 [1] | Ki [1] | IC50 [2] | Ki [2] | IC50 [3] | Ki [3] | IC50 [4] | IC50 [5] | IC50 [6] | Ki [6] | IC50 [7] | IC50 [8]

NC(=O)c1cnccn1 [PYRAZINAMIDE]
Not Active: IC50 [1] | Ki [1] | IC50 [2] | Ki [2] | IC50 [3] | Ki [3] | IC50 [4] | IC50 [5] | IC50 [6] | Ki [6] | IC50 [7] | IC50 [8]

CC[C@@H](CO)NCCN[C@@H](CC)CO [ETHAMBUTOL]
Not Active: IC50 [1] | Ki [1] | IC50 [2] | Ki [2] | IC50 [3] | Ki [3] | IC50 [4] | IC50 [5] | IC50 [6] | Ki [6] | IC50 [7] | IC50 [8]

CC(C)(Oc1ccc(C2CCCc3ccccc32)cc1)C(=O)O (stereo not given) [NAFENOPIN]
Not Active: IC50 [1] | Ki [1] | IC50 [2] | Ki [2] | IC50 [3] | Ki [3] | IC50 [4] | IC50 [5] | IC50 [6] | Ki [6] | IC50 [7] | IC50 [8]

C[C@@H]1C[C@@H]([C@H](O)CC2CC(=O)NC(=O)C2)C(=O)[C@@H](C)C1 [CYCLOHEXIMIDE]
Not Active: IC50 [1] | Ki [1] | IC50 [2] | Ki [2] | IC50 [3] | Ki [3] | IC50 [4] | IC50 [5] | IC50 [6] | Ki [6] | IC50 [7] | IC50 [8]

CCn1cc(C(=O)O)c(=O)c2cc(F)c(N3CCN(C)CC3)cc21 [PEFLOXACIN]
Not Active: IC50 [1] | Ki [1] | IC50 [2] | Ki [2] | IC50 [3] | Ki [3] | IC50 [4] | IC50 [5] | IC50 [6] | Ki [6] | IC50 [7] | IC50 [8]

CCN(CC)CCOC(=O)c1ccc(N)cc1 [PROCAINE]
Not Active: IC50 [1] | Ki [1] | IC50 [2] | Ki [2] | IC50 [3] | Ki [3] | IC50 [4] | IC50 [5] | IC50 [6] | Ki [6] | IC50 [7] | IC50 [8]

CCCC(CCC)C(=O)O [VALPROIC ACID]
Not Active: IC50 [1] | Ki [1] | IC50 [2] | Ki [2] | IC50 [3] | Ki [3] | IC50 [4] | IC50 [5] | IC50 [6] | Ki [6] | IC50 [7] | IC50 [8]

S=C=Nc1cccc2ccccc12 [1-NAPHTHYLISOTHIOCYANATE]
Not Active: IC50 [1] | Ki [1] | IC50 [2] | Ki [2] | IC50 [3] | Ki [3] | IC50 [4] | IC50 [5] | IC50 [6] | Ki [6] | IC50 [7] | IC50 [8]

COc1ccc2cc([C@H](C)C(=O)O)ccc2c1 [NAPROXEN]
Not Active: IC50 [1] | Ki [1] | IC50 [2] | Ki [2] | IC50 [3] | Ki [3] | IC50 [4] | IC50 [5] | IC50 [7] | IC50 [8]

Cc1ccccc1C(=O)N1CCC(Cc2ccccc2)CC1
Not Active: IC50 [1] | Ki [1] | IC50 [2] | Ki [2] | IC50 [3] | Ki [3] | IC50 [4] | IC50 [5] | IC50 [6] | Ki [6] | IC50 [7] | IC50 [8]

C[C@@H](O)[C@H](CO)NC(=O)[C@@H]1CSSC[C@H](NC(=O)[C@H](N)Cc2ccccc2)C(=O)N[C@@H](Cc2ccccc2)C(=O)N[C@H](Cc2c[nH]c3ccccc23)C(=O)N[C@@H](CCCCN)C(=O)N[C@@H]([C@@H](C)O)C(=O)N1 (H-[dF]CF[dW]KTC-{Threoninol(2S,3R)}; disulfide 2-7)
Not Active: IC50 [1] | Ki [1] | IC50 [2] | Ki [2] | IC50 [3] | Ki [3] | IC50 [4] | IC50 [5] | IC50 [6] | Ki [6] | IC50 [7] | IC50 [8]

Cc1nccn1CC1CCc2c(c3ccccc3n2C)C1=O (stereo not given) [ONDANSETRON]
Not Active: IC50 [1] | Ki [1] | IC50 [2] | Ki [2] | IC50 [3] | Ki [3] | IC50 [4] | IC50 [5] | IC50 [6] | Ki [6] | IC50 [7] | IC50 [8]

C#C[C@]1(O)CC[C@H]2[C@@H]3CCc4cc(OC)ccc4[C@H]3CC[C@@]21C [MESTRANOL]
Not Active: IC50 [1] | Ki [1] | IC50 [2] | Ki [2] | IC50 [3] | Ki [3] | IC50 [4] | IC50 [5] | IC50 [6] | Ki [6] | IC50 [7] | IC50 [8]

Reference: ChEMBL document CHEMBL1909046, “DrugMatrix in vitro pharmacology data”
